Reference: patent US20210087172A1, “FACTOR XIIa INHIBITORS” (UNIVESITY OF LEEDS, priority 2018, published 2021)

Legend:
Type in all cases: biochemical
FXa (human) = FXa (human) (Homo sapiens, UniProt P00742); assay: Determination of selectivity: FXa chromogenic assay (S2765 substrate); conditions: fold selectivity for FXIIa over FXa; FXa 5 nM, S2765 350 μM
Experimental: (§1) The activities of the compounds of the invention have been determined in vitro using the following assays protocols for the screening of activity of FXIa and other proteases. Each of these assays were performed in a purified system employing the use of chromogenic assays in microplate plate wells. Chromogenic peptide substrates mimicking natural protein substrates are attached via an amide bond to a chromogenic group. Paranitroaniline (pNA) is released from the peptide following catalyses by the proteolytic enzyme; the absorbance increases and can be monitored at 405 nm.
(§2) All compounds were dissolved in 100% (v/v) DMSO to a stock concentration of 10 mM, the highest concentration of compound used in each assay is 500 μM. The final concentrations of DMSO were 5% (v/v) in 50 mM Tris 137 mM NaCl pH 7.4. Where no test compound was added a final concentration of 5% DMSO was employed.
(§3) To determine selectivity of test compounds, these test compounds were assayed for inhibitory activity against other serine proteases including FXa and thrombin. Essentially compounds at increasing concentrations were incubated with each enzyme: FXa (5 nM) and thrombin (5 nM), for 10 mins at 37° C. followed the appropriate chromogenic substrate, S2765 (350 μM), and GPR (250 μM) respectively in 50 mM Tris, 137 mM NaCl, pH 7.4. Chromogenic substrates S2765 was from Chromogenix, and GPR from Bachem. Kinetic readings at 405 nm were monitored every 12 secs for a total duration of 3 hours at 37° C. Gradients of initial rates were determined and employed to calculate IC50 values. Values of IC50 were converted to Ki values based on the formula:
(§4) Ki=IC50/(1+[Substrate]/Km)
(§5) Where [Substrate] denotes the concentration of substrate used in the assay and Km is the determined value of each enzyme with its own substrate.
The fold selectivity for FXIIa over FXa for the compounds of the invention has been categorised based on the fold selectivity values, the categories being “o”, “oo” and “ooo”. The category “o” refers to fold selectivity values less than 10. The category “oo” refers to a fold selectivity value of 10 to 100. The category “ooo” refers to fold selectivity values greater than 100.

FXIIa alpha (Human) = molecular target: T1, FXIIa alpha (Human) (Homo sapiens, UniProt P00748); assay: Determination of Factor XIIa inhibition, chromogenic substrate S-2302; conditions: 10 nM FXIIa, 450 μM S-2302, 37° C., pH 7.4; Ki converted from IC50
T1 construct: FXIIa alpha
T1 sequence (P00748 373-615 limits assumed): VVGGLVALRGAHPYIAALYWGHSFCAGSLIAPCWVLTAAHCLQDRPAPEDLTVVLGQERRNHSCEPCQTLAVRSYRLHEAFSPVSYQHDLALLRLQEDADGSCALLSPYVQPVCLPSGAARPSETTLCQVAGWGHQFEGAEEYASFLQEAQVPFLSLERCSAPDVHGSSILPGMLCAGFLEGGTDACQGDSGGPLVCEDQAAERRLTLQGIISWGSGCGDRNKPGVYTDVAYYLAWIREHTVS
T1 sequence (P00748 20-372 partner limits assumed): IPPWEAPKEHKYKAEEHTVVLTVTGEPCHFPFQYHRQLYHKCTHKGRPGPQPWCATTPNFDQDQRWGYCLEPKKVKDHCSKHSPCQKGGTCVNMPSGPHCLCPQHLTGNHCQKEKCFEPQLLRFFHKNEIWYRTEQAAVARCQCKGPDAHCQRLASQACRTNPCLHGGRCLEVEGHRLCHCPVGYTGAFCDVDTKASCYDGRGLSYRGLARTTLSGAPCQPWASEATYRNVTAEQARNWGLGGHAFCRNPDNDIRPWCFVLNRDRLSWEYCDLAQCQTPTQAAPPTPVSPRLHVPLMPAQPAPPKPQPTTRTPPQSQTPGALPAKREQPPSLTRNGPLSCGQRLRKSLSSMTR
Experimental: as §1, §2
Factor XIa activity was measured using a chromogenic substrate S-2302 (Chromogenix). Various concentrations of compound were incubated with 10 nM of FXIIa and incubated at 37° C. for 10 minutes in 50 mM Tris, 137 mM NaCl, pH 7.4, prior to the addition of a final concentration of 450 μM S-2302 chromogenic substrate. Kinetic readings at 405 nm were monitored every 12 secs for a total duration of 3 hours at 37° C. Gradients of initial rates were determined and employed to calculate IC50 values. Values of IC50 were converted to Ki values based on the formula:
as §4
The activity of the compounds of the invention has been categorised based on the Ki values, the categories being “*”, “**” and “***”. […] The category refers to compounds with a Ki value of 0.2 μM to 2 μM.

Thrombin (human) = molecular target: T2, Thrombin (human) (Homo sapiens, UniProt P00734); assay: Determination of selectivity: thrombin chromogenic assay (GPR substrate); conditions: fold selectivity for FXIIa over thrombin; thrombin 5 nM, GPR 250 μM
T2 construct: FXa (5 nM) and thrombin (5 nM)
Experimental: as §1, §2, §3, §4, §5
The fold selectivity for FXIIa over thrombin for the compounds of the invention has been categorised based on the fold selectivity values, the categories being “+”, “++” and “+++”. The category “+” refers to fold selectivity values less than 10. The category “++” refers to a fold selectivity value of 10 to 100. The category “+++” refers to fold selectivity values greater than 100.

Chain of FXa (human) (P00742 235-488 limits assumed): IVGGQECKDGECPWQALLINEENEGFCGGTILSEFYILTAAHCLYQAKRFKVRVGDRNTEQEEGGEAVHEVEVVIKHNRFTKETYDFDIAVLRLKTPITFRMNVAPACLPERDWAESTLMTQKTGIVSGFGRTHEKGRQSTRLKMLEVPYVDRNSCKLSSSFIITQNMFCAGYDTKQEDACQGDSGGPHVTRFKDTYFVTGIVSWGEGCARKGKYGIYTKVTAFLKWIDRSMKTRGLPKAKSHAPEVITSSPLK
Chain of FXa (human) (P00742 41-179 partner limits assumed): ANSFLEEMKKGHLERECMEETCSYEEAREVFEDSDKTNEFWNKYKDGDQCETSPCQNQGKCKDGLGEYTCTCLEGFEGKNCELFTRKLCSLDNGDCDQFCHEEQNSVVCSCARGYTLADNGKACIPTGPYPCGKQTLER

| Structure (SMILES) | FXa (human)/FXIIa alpha (human) fold selectivity (FXa (human)) | Ki (FXIIa alpha (Human)) [µM] | Thrombin (human)/FXIIa alpha (human) fold selectivity (Thrombin (human)) |
| --- | --- | --- | --- |
| Cc1ccc(OC(=O)N2CCN(C(=O)[C@H](N)CCc3ccccc3)[C@H](C(=O)NCc3ccc4c(c3)nnn4C)C2)cc1 [Compound M00934] | oo (a fold selectivity value of 10 to 100) | > 2 | ++ (a fold selectivity value of 10 to 100) |
| O=C(NCc1cc2ccncc2[nH]1)[C@@H]1CN(C(=O)OCc2ccccc2)CCN1C(=O)[C@H]1C[C@@H](c2ccccc2)CN1 [Compound M00950] | oo (a fold selectivity value of 10 to 100) | 0.2 to 2 | ++ (a fold selectivity value of 10 to 100) |
| N[C@H](CCC(=O)N1CCCC1)C(=O)N1CCN(C(=O)OCc2ccccc2)C[C@H]1C(=O)NCc1cc2ccncc2[nH]1 [Compound M00951] | oo (a fold selectivity value of 10 to 100) | 0.2 to 2 | ++ (a fold selectivity value of 10 to 100) |
| N[C@H](CCC(=O)N1CCCC1)C(=O)N1CCN(C(=O)OCc2ccccc2)C[C@H]1C(=O)NCc1cc2cnccc2[nH]1 [Compound M00971] | ooo (fold selectivity values greater than 100) | < 0.2 | +++ (fold selectivity values greater than 100) |
| NCc1ccc(CNC(=O)[C@@H]2CN(C(=O)OCc3ccccc3)CCN2C(=O)[C@H](N)CCc2ccccc2)cc1 [Compound M05086] | oo (a fold selectivity value of 10 to 100) | > 2 | ++ (a fold selectivity value of 10 to 100) |
| Cn1nnc2cc(CNC(=O)[C@@H]3CN(C(=O)OCc4ccccc4)CCN3C(=O)[C@H](N)CCc3ccccc3)ccc21 [Compound M05098, (S)-4-((R)-2-Amino-4-phenyl-butyryl)-3-[(1-methyl-1H-benzotriazol-5-ylmethyl)-carbamoyl]-piperazine-1-carboxylic acid benzyl ester] | oo (a fold selectivity value of 10 to 100) | > 2 | ++ (a fold selectivity value of 10 to 100) |
| Nc1noc2cc(CNC(=O)[C@@H]3CN(C(=O)OCc4ccccc4)CCN3C(=O)[C@H](N)CCc3ccccc3)ccc12 [Compound M05124] | oo (a fold selectivity value of 10 to 100) | > 2 | + (fold selectivity values less than 10) |
| Nc1cc(CNC(=O)[C@@H]2CN(C(=O)OCc3ccccc3)CCN2C(=O)[C@H](N)CCC(=O)N2CCCC2)ccn1 [Compound M05209] | oo (a fold selectivity value of 10 to 100) | 0.2 to 2 | +++ (fold selectivity values greater than 100) |
| Cn1nnc2cc(CNC(=O)[C@@H]3CN(C(=O)OCc4ccccc4)CCN3C(=O)[C@H](N)CCC(=O)N3CCCC3)ccc21 [Compound M05212] | ooo (fold selectivity values greater than 100) | > 2 | +++ (fold selectivity values greater than 100) |
| N[C@H](CCC(=O)N1CCCC1)C(=O)N1CCN(C(=O)OCc2ccccc2)C[C@H]1C(=O)NCc1ccc2[nH]cnc2c1 [Compound M05213] | oo (a fold selectivity value of 10 to 100) | > 2 | ++ (a fold selectivity value of 10 to 100) |
| CN(C)[C@H](CCC(=O)N1CCCC1)C(=O)N1CCN(C(=O)OCc2ccccc2)C[C@H]1C(=O)NCc1ccc2[nH]cnc2c1 [Compound M05217] | oo (a fold selectivity value of 10 to 100) | > 2 | ++ (a fold selectivity value of 10 to 100) |
| Cn1nnc2cc(CNC(=O)[C@@H]3CC(Oc4ncccn4)CCN3C(=O)[C@H](N)CCC(=O)N3CCCC3)ccc21 (stereo partly drawn) [Compound M05252] | oo (a fold selectivity value of 10 to 100) | > 2 | ++ (a fold selectivity value of 10 to 100) |
| Cn1nnc2cc(CNC(=O)[C@@H]3CN(C(=O)OCc4ccccc4)CCN3C(=O)[C@H]3C[C@@H](c4ccccc4)CN3)ccc21 [Compound M05276] | oo (a fold selectivity value of 10 to 100) | > 2 | ++ (a fold selectivity value of 10 to 100) |
| Cn1nnc2cc(CNC(=O)[C@@H]3C[C@@H](c4ccccc4)CCN3C(=O)[C@H](N)CCC(=O)N3CCCC3)ccc21 [Compound M05375] | oo (a fold selectivity value of 10 to 100) | > 2 | ++ (a fold selectivity value of 10 to 100) |
| Cn1nnc2cc(CNC(=O)[C@@H]3C[C@H](c4ccccc4)CCN3C(=O)[C@H](N)CCC(=O)N3CCCC3)ccc21 [Compound M05385] | oo (a fold selectivity value of 10 to 100) | > 2 | ++ (a fold selectivity value of 10 to 100) |
